Results reported in US20020025331A1, “Cosmetic compositions containing substituted amine derivatives” (priority 2000, published 2002).
Like-named read-outs stand apart in the source and are kept apart here.

System: human sebocytes
Experiment: Sebum suppression in cultured human sebocytes (14C-acetate incorporation), alone or with retinol
Type: cell-based
Conditions: for sebum suppressive activity (in words): agent alone, summary of Tables 1-6
Protocol: Compounds A through E were tested for their potential to suppress sebum expression, alone or in the presence of a retinoid.
Secondary cultures of human sebocytes obtained from an adult […] were grown in 48-well tissue culture plates (Costar Corp.; Cambridge, MA) or 96-well tissue culture plates (Packard Co.; Meriden, CT) until confluent.
Sebocyte growth medium consisted of Clonetics Keratinocyte Basal Medium (KBM) supplemented with 14 μg/ml bovine pituitary extract, 0.4 μg/ml hydrocortisone, 5 μg/ml insulin, […], 1.2 ×10^-10 M cholera toxin, 100 units/ml penicillin, and 100 μg/ml streptomycin.
All cultures were incubated at 37° C. in the presence of 7.5% CO2. Medium was changed three times per week.
On the day of experimentation, the growth medium was removed and the sebocytes washed three times with sterile Dulbecco's Modified Eagle Medium (DMEM; phenol red free). Fresh DMEM was added to each sample (duplicates, triplicates, or quadruplicates depending on the experiment) with 5 microliter of test agent solubilized in ethanol either alone or in the presence of one or 10 micromolar of retinol. Controls consisted of addition of ethanol alone, retinol alone, or phenol red, which has estrogen-like activity and is included as a positive control.
Each plate was returned to the incubator for 20 hours followed by the addition of 14C-acetate buffer (5 mM final concentration, 56 mCi/mmol specific activity). Sebocytes were returned to the incubator for four hours after which each culture was rinsed three times with phosphate buffered saline to remove unbound label. Radioactive label remaining in the sebocytes was harvested and counted using a Beckman scintillation counter.

CSc1ccc(NC(C)CC(c2ccccc2)c2c(O)c3ccccc3oc2=O)cc1 (centres unmarked) [Compound A]
% of Control (Experiment A, 1 μM test agent + 10 μM Retinol): 94.3% | % of Control (Experiment A, 1 μM test agent alone): 93.8% | % of Control (Experiment A, 10 μM test agent + 10 μM Retinol): 88.6% | % of Control (Experiment A, 10 μM test agent alone): 78.1% | % of Control (Experiment A, 100 μM test agent + 10 μM Retinol): 6.2% | % of Control (Experiment A, 100 μM test agent alone): 12.5% | % of Control (Experiment B (n = 3), 1 μM test agent + 1 μM Retinol): 93.3% | % of Control (Experiment B (n = 3), 1 μM test agent + 10 μM Retinol): 85.4% | % of Control (Experiment B (n = 3), 1 μM test agent alone): 102.1% | % of Control (Experiment B (n = 3), 10 μM test agent + 1 μM Retinol): 80.2% | % of Control (Experiment B (n = 3), 10 μM test agent + 10 μM Retinol): 78.6% | % of Control (Experiment B (n = 3), 10 μM test agent alone): 89.4% | % of Control (Experiment B (n = 3), 100 μM test agent + 1 μM Retinol): 19.7% | % of Control (Experiment B (n = 3), 100 μM test agent + 10 μM Retinol): 26.5% | % of Control (Experiment B (n = 3), 100 μM test agent alone): 23.5% | sebum suppressive activity (in words): had sebum suppressive activity

COc1ccc(OC)c(C(C)NC/C=C(\C)CCC=C(C)C)c1 (centres unmarked) [Compound C]
% of Control (96 Well Plate (n = 2), 10 μM test agent + 1 μM Retinol): 45.2% | % of Control (96 Well Plate (n = 2), 10 μM test agent alone): 72.3% | % of Control (96 Well Plate (n = 2), 50 μM test agent + 1 μM Retinol): 0.3% | % of Control (96 Well Plate (n = 2), 50 μM test agent alone): 34.2% | sebum suppressive activity (in words): had sebum suppressive activity | sebum suppressive activity when combined with retinol / a retinoid (in words) (in the presence of a retinoid (retinol)): improved sebum suppressive activity

O=S1(=O)OC(c2ccc(O)cc2)(c2ccc(O)cc2)c2ccccc21 [Phenol Red, reference compound]
activity at 28 µM (Homo sapiens, Experiment B (n = 3), 28 μM alone, read-out: % of Control): 86.4% | activity at 280 µM (Homo sapiens, Experiment B (n = 3), 280 μM alone, read-out: % of Control): 52.2% | % Reduction (Table 3 (n = 4), 28 μM alone): 74.7%

CC1=C(/C=C/C(C)=C/C=C/C(C)=C/C=O)C(C)(C)CCC1 [Retinal, reference compound]
activity at 1 µM (Homo sapiens, Experiment B (n = 3), 1 μM test agent alone, read-out: % of Control): 104% | activity at 10 µM (Homo sapiens, Experiment B (n = 3), 10 μM test agent alone, read-out: % of Control): 101%

CC1=C(/C=C/C(C)=C/C=C/C(C)=C/CO)C(C)(C)CCC1 [Retinol, reference compound]
activity at 10 µM (Homo sapiens, Experiment A, 10 μM test agent alone, read-out: % of Control): 98.3% | sebum suppressive activity (in words): inactive
